US10597388B2, “Pyridazinone herbicides” (FMC CORPORATION, priority 2014, dated 2020)

Tests used:
Assay in all cases: Test C greenhouse herbicide test, pre- and postemergence
Type in all cases: in vivo
[1] = test system: barnyardgrass (Echinochloa crus-galli); details: Postemergence; for Barnyardgrass plant response rating: 62 g ai/ha, 0 to 100 scale (0 no effect, 100 complete control)
Summary of the method: (§1)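 Seeds sown in loam–sand blend treated preemergence; plants in peat-based medium sprayed postemergence at 2–18 cm (1- to 4-leaf stage); chemicals in non-phytotoxic solvent with surfactant. Greenhouse 13–15 d, then visual rating versus controls on 0–100 scale (0 no effect, 100 complete control).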

[2] = test system: blackgrass (Alopecurus myosuroides)
Summary of the method: as §1

corn (Zea mays) = test system: corn (Zea mays)
Summary of the method: as §1

[3] = test system: crabgrass, large (large crabgrass, Digitaria sanguinalis)
Summary of the method: as §1

[4] = test system: foxtail, giant (giant foxtail, Setaria faberii)
Summary of the method: as §1

[5] = test system: galium (catchweed bedstraw, Galium aparine)
Summary of the method: as §1

[6] = test system: lambsquarters (Chenopodium album)
Summary of the method: as §1

[7] = test system: morningglory (Ipomoea coccinea)
Summary of the method: as §1

[8] = test system: oilseed rape (Brassica napus)
Summary of the method: as §1

[9] = test system: pigweed (Amaranthus retroflexus)
Summary of the method: as §1

[10] = test system: ragweed (common ragweed, Ambrosia elatior)
Summary of the method: as §1

[11] = test system: ryegrass, Italian (Italian ryegrass, Lolium multiflorum)
Summary of the method: as §1

[12] = test system: velvetleaf (Abutilon theophrasti)
Summary of the method: as §1

[13] = test system: waterhemp (common waterhemp, Amaranthus rudis)
Summary of the method: as §1

[14] = test system: wheat (winter wheat, Triticum aestivum)
Summary of the method: as §1

[15] = 31 g ai/ha, scale 0 to 100 (0 no effect, 100 complete control)
[16] = 125 g ai/ha, scale 0 to 100, 0 is no effect, 100 is complete control
[17] = 250 g ai/ha, scale 0 to 100, 0 no effect, 100 complete control, 13 to 15 d
[18] = Postemergence, 31 g ai/ha, scale 0 to 100 (0 no effect, 100 complete control)
[19] = Postemergence, 62 g ai/ha, 0 to 100 scale (0 no effect, 100 complete control)
[20] = Postemergence, 125 g ai/ha, scale 0 to 100, 0 is no effect, 100 is complete control
[21] = Postemergence, 250 g ai/ha, scale 0 to 100, 0 no effect, 100 complete control, 13 to 15 d
[22] = postemergence, 125 g ai/ha, scale 0 to 100, 0 no effect, 100 complete control

For `Cc1nn(C)c(=O)c(-c2cccc3ccc(Br)cc23)c1O` [Compound 126], the “Plant response rating, Barnyardgrass” value [1, 15] was 25, the “Barnyardgrass plant response rating” value [1] was 30 and the “Plant response rating, Barnyardgrass” value [1, 16] was 35. The “Plant response rating, Barnyardgrass” value [1, 17] was 50, the “Plant response rating, Blackgrass” value [2, 18] was 5 and the “Blackgrass plant response rating” value [2, 19] was 5. The “Plant response rating, Blackgrass” value [2, 20] was 10, the “Plant response rating, Blackgrass” value [2, 21] was 40 and the “Plant response rating, Corn” value (corn (Zea mays); [18]) was 10. The “Corn plant response rating” value (corn (Zea mays); [19]) was 10, the “Plant response rating, Corn” value (corn (Zea mays); [20]) was 20 and the “Plant response rating, Corn” value (corn (Zea mays); [21]) was 25. The “Plant response rating, Crabgrass, Large” value [3, 18] was 10, the “Crabgrass, Large plant response rating” value [3, 19] was 20 and the “Plant response rating, Crabgrass, Large” value [3, 20] was 30. The “Plant response rating, Crabgrass, Large” value [3, 21] was 30, the “Plant response rating, Foxtail, Giant” value [4, 18] was 5 and the “Foxtail, Giant plant response rating” value [4, 19] was 15. For the same compound, the “Plant response rating, Foxtail, Giant” value [4, 20] was 15, the “Plant response rating, Foxtail, Giant” value [4, 21] was 25 and the “Plant response rating, Galium” value [5, 18] was 90. For the same compound, the “Galium plant response rating” value [5, 19] was 95, the “Plant response rating, Galium” value [5, 20] was 98 and the “Plant response rating, Galium” value [5, 21] was 98. For the same compound, the “Plant response rating, Lambsquarters” value [6, 18] was 80, the “Lambsquarters plant response rating” value [6, 19] was 95 and the “Plant response rating, Lambsquarters” value [6, 20] was 95. For the same compound, the “Plant response rating, Lambsquarters” value [6, 21] was 95, the “Plant response rating, Morningglory” value [7, 18] was 95 and the “Morningglory plant response rating” value [7, 19] was 95. For the same compound, the “Plant response rating, Morningglory” value [7, 20] was 98, the “Plant response rating, Morningglory” value [7, 21] was 98 and the “Plant response rating, Oilseed Rape” value [8, 18] was 60. The “Oilseed Rape plant response rating” value [8, 19] was 80, the “Plant response rating, Oilseed Rape” value [8, 20] was 60 and the “Plant response rating, Oilseed Rape” value [8, 21] was 85. The “Plant response rating, Pigweed” value [9, 18] was 85, the “Pigweed plant response rating” value [9, 19] was 90 and the “Plant response rating, Pigweed” value [9, 20] was 95. For the same compound, the “Plant response rating, Pigweed” value [9, 21] was 95, the “Plant response rating, Ragweed” value [10, 18] was 85 and the “Ragweed plant response rating” value [10, 19] was 90. The “Plant response rating, Ragweed” value [10, 20] was 95, the “Plant response rating, Ragweed” value [10, 21] was 95 and the “Plant response rating, Ryegrass, Italian” value [11, 18] was 80. The “Ryegrass, Italian plant response rating” value [11, 19] was 85, the “Plant response rating, Ryegrass, Italian” value [11, 20] was 90 and the “Plant response rating, Ryegrass, Italian” value [11, 21] was 90. The “Plant response rating, Velvetleaf” value [12, 18] was 30, the “Velvetleaf plant response rating” value [12, 19] was 85 and the “Plant response rating, Velvetleaf” value [12, 20] was 98. The “Plant response rating, Velvetleaf” value [12, 21] was 95, the “Plant response rating, Waterhemp” value [13, 18] was 75 and the “Waterhemp plant response rating” value [13, 19] was 90. For the same compound, the “Plant response rating, Waterhemp” value [13, 20] was 95, the “Plant response rating, Waterhemp” value [13, 21] was 100 and the “Plant response rating, Wheat” value [14, 18] was 0. The “Wheat plant response rating” value [14, 19] was 0, the “Plant response rating, Wheat” value [14, 20] was 0 and the “Plant response rating, Wheat” value [14, 21] was 5.

In the case of `COC(=O)Oc1c(C)nn(C)c(=O)c1-c1ccc(F)c2ccccc12` [Compound 130], the “Plant response rating, Barnyardgrass” value [1, 15] is reported as 30, the “Barnyardgrass plant response rating” value [1] is reported as 30 and the “Plant response rating, Barnyardgrass” value [1, 16] is reported as 35. The “Plant response rating, Barnyardgrass” value [1, 17] was 55, the “Plant response rating, Blackgrass” value [2, 18] was 30 and the “Blackgrass plant response rating” value [2, 19] was 35. The “Plant response rating, Blackgrass” value [2, 21] was 60, the “Blackgrass plant response rating” value [2, 22] was 55 and the “Plant response rating, Corn” value (corn (Zea mays); [18]) was 5. The “Corn plant response rating” value (corn (Zea mays); [19]) was 5, the “Plant response rating, Corn” value (corn (Zea mays); [21]) was 15 and the “Corn plant response rating” value (corn (Zea mays); [22]) was 5. For the same compound, the “Plant response rating, Crabgrass, Large” value [3, 18] was 10, the “Crabgrass, Large plant response rating” value [3, 19] was 15 and the “Plant response rating, Crabgrass, Large” value [3, 21] was 60. The “Crabgrass, Large plant response rating” value [3, 22] was 15, the “Plant response rating, Foxtail, Giant” value [4, 18] was 20 and the “Foxtail, Giant plant response rating” value [4, 19] was 20. For the same compound, the “Plant response rating, Foxtail, Giant” value [4, 21] was 70, the “Foxtail, Giant plant response rating” value [4, 22] was 40 and the “Plant response rating, Galium” value [5, 18] was 95. For the same compound, the “Galium plant response rating” value [5, 19] was 95, the “Plant response rating, Galium” value [5, 21] was 98 and the “Galium plant response rating” value [5, 22] was 95. For the same compound, the “Plant response rating, Lambsquarters” value [6, 18] was 90, the “Lambsquarters plant response rating” value [6, 19] was 98 and the “Plant response rating, Lambsquarters” value [6, 21] was 100. The “Lambsquarters plant response rating” value [6, 22] was 100, the “Plant response rating, Morningglory” value [7, 18] was 75 and the “Morningglory plant response rating” value [7, 19] was 80. The “Plant response rating, Morningglory” value [7, 21] was 100, the “Morningglory plant response rating” value [7, 22] was 85 and the “Plant response rating, Oilseed Rape” value [8, 18] was 0. The “Oilseed Rape plant response rating” value [8, 19] was 0, the “Plant response rating, Oilseed Rape” value [8, 21] was 0 and the “Oilseed Rape plant response rating” value [8, 22] was 0. The “Plant response rating, Pigweed” value [9, 18] was 50, the “Pigweed plant response rating” value [9, 19] was 70 and the “Plant response rating, Pigweed” value [9, 21] was 90. The “Pigweed plant response rating” value [9, 22] was 90, the “Plant response rating, Ragweed” value [10, 18] was 85 and the “Ragweed plant response rating” value [10, 19] was 90. For the same compound, the “Plant response rating, Ragweed” value [10, 21] was 98, the “Ragweed plant response rating” value [10, 22] was 98 and the “Plant response rating, Ryegrass, Italian” value [11, 18] was 90. The “Ryegrass, Italian plant response rating” value [11, 19] was 90, the “Plant response rating, Ryegrass, Italian” value [11, 21] was 95 and the “Ryegrass, Italian plant response rating” value [11, 22] was 95. For the same compound, the “Plant response rating, Velvetleaf” value [12, 18] was 75, the “Velvetleaf plant response rating” value [12, 19] was 70 and the “Plant response rating, Velvetleaf” value [12, 21] was 98. The “Velvetleaf plant response rating” value [12, 22] was 98, the “Plant response rating, Waterhemp” value [13, 18] was 70 and the “Waterhemp plant response rating” value [13, 19] was 85. The “Plant response rating, Waterhemp” value [13, 21] was 98, the “Waterhemp plant response rating” value [13, 22] was 80 and the “Plant response rating, Wheat” value [14, 18] was 0. For the same compound, the “Wheat plant response rating” value [14, 19] was 5, the “Plant response rating, Wheat” value [14, 21] was 15 and the “Wheat plant response rating” value [14, 22] was 10.
